According to patent publication US12358904B2, “Inhibitors of TYK2” (Atomwise Inc., priority 2023, dated 2025):

Legend:
TYK2-JH2 = target: T1, TYK2-JH2 (Homo sapiens, UniProt P29597); experiment: TYK2-JH2 HTRF binding assay (ligand efficiency); conditions: calculated from IC50 of the TYK-JH2 binding assay (Equation 1)
T1 construct: TYK JH2 enzyme mix (ChemPartnec CP20210818A-BV); purchased ChemPartner CP20210818A-BV
Protocol: The following example describes the TYK2-JH2 HTRF binding assay used to determine the ligand efficiency of the TYK2 inhibitors.
To calculate ligand efficiency, Equation 1 is applied:
[formula] in which IC50 comes from the binding assay used to determine compound potency.
TYK JH2 enzyme mix (ChemPartnec CP20210818A-BV), tracer (ChemPartnec CP-0029472-051) and mAb Anti-6HIS Tb cryptate Gold (Cisbio: Cat No. 61H12TLA) mix were prepared in assay buffer (10 mM MgCl2, 20 mM HEPES pH 7.5, 0.01% Triton X-100, 1 mM DTT). Compounds diluted in DMSO (Final Concentrations 0.1 to 0.000005 [μM]) and enzyme mix (0.5 nM Final Concentration) were added to 384 well plates, briefly centrifuged and incubated at room temperature for 10 minutes. After incubation, tracer mix (Tracer-35 nM final concentration); (Mab Anti-6HIS Tb cryptate Gold-0.5× final)) was added, briefly centrifuged then incubate at room temperature 60 minutes. After incubation, plates were read by Envision TR-FRET (Ex340/Em495/520) protocol (PerkinElmer-Envision 2104 multilabel plate reader).

IL-12/pSTAT4 = experiment: IL-12 induced pSTAT4 assay in NK-92 cells; assay type: cell-based; conditions: Homo sapiens, NK92, IL-12 stimulation, read-out: Cellular potency (IL-12/pSTAT4)
Protocol: The following example describes the IL-12 induced pSTAT4 assay used to determine the cellular potency (IL-12/pSTAT4) of the TYK2 inhibitors.
NK-92 cells (human natural killer lymphoma cell line) were cultured in MEM α, nucleosides (Life Technologies, 22571020) 12.5% heat inactivated FBS (Dominique Dutscher, S1810), 12.5% heat inactivated Horse serum (Life Technologies, 26050088) and 1% Penicillin-Streptomycin (Life Technologies, 15140122), 5 ng/mL human IL-2 (R&D systems, 202-II/CF), 0.2 mM inositol (Sigma, PHR1351 lot LRAC4118), 0.1 mM β-mercaptoethanol (Life Technologies, 31350010), and 0.02 mM folic acid (Sigma, F8758).
NK-92 cells were starved overnight in starvation medium (Opti-MEM (ThermoFisher, 11058-021), 10% charcoal stripped FBS (ThermoFisher 12676-029), and 1% Penicillin (100U/ml)-Streptomycin (100 μg/ml) (ThermoFisher, ref 15140122)), then plated in a 96-well tissue culture plate (20K cells/well) prior to pre-incubation with test compounds (Final Concentration [nM] 1000 to 0.05) for 30 minutes at 37° C. Cells were stimulated with IL-12 (Final Concentration l0 ng/ml) for 30 minutes at 37° C., and terminated by addition of lysis buffer (MSD K150PAD-2). pSTAT4 (Tyr693) was detected using the Mesa Scale Discovery platform (MSD K150PAD-2), according to manufacturer's instruction. Briefly, cell lysates were added to pre-blocked plates and incubated for 1 hour at room temperature. Plates were washed and incubated with detection antibody for 1 hour at room temperature. Plates were washed and Read Buffer was added prior to measurement on the MSD (1300 MSD Quickplex SQ 120).

T1 sequence (P29597 589-875 limits assumed): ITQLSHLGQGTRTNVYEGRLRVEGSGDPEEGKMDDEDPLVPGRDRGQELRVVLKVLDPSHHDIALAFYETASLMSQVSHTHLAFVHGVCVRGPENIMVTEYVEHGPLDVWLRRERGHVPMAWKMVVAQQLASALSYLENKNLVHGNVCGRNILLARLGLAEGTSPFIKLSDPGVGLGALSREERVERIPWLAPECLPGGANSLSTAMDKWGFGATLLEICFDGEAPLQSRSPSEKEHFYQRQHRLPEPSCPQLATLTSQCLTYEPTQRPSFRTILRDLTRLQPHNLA

Row | SMILES | Ligand Efficiency (TYK2-JH2) | IC50 (IL-12/pSTAT4) [nM]
1 | CS(=O)(=O)c1cccnc1Nc1cc(Nc2ccc(N3CCC4(CCO4)CC3)cn2)ncn1 [Compound 24, N^4-(5-(1-oxa-7-azaspiro[3.5]nonan-7-yl)104yridine-2-yl)-N^6-(3-(methylsulfonyl)104yridine-2-yl)pyrimidine-4,6-diamine] | †† (††: 0.37-0.39) | < 100
2 | Cc1cccc(Nc2cc(Nc3ccccc3C(N)=O)nc(N)n2)n1 [Compound 55, 2-((2-amino-6-((6-methylpyridin-2-yl)amino)pyrimidin-4-yl)amino)benzamide] | †† (††: 0.37-0.39) | 
3 | CS(=O)(=O)c1ccccc1Nc1cc(Nc2ccc(C(=O)NC3CCOC3)cn2)ncn1 (centres unmarked) [Compound 43, 6-(6-(2-(methylsulfonyl)phenylamino)pyrimidin-4-ylamino)-N-(tetrahydrofuran-3-yl)nicotinamide] | †† (††: 0.37-0.39) | > 1000
4 | C[C@@H](c1ccc(Nc2cc(Nc3ncccc3S(C)(=O)=O)ncn2)nc1)N1CC2(CCOC2)C1 [Compound 32, (S)—N^4-(5-(1-(6-oxa-2-azaspiro[3.4]octan-2-yl)ethyl)114yridine-2-yl)-N^6-(3-(methylsulfonyl)114yridine-2-yl)pyrimidine-4,6-diamine] | ††† (†††: >0.39) | < 100
5 | Cc1ccnc(Nc2cc(Nc3ccccc3C(N)=O)ncn2)n1 [Compound 58, 2-(6-(4-methylpyrimidin-2-ylamino)pyrimidin-4-ylamino)benzamide] | ††† (†††: >0.39) | > 1000
6 | Cc1cccc(Nc2cc(Nc3cnccc3C(N)=O)ncn2)n1 [Compound 61, 3-((6-((6-methylpyridin-2-yl)amino)pyrimidin-4-yl)amino) isonicotinamide] | ††† (†††: >0.39) | 100 to 1000
7 | Cc1cccc(Nc2cc(Nc3ccccc3S(C)(=O)=O)nc(N)n2)n1 [Compound 57, N^4-(6-methylpyridin-2-yl)-N^6-(2-(methylsulfonyl)phenyl)pyrimidine-2,4,6-triamine] | ††† (†††: >0.39) | 
8 | Cc1cccnc1Nc1cc(Nc2ccccc2C(N)=O)ncn1 [Compound 68, 2-((6-((3-methylpyridin-2-yl)amino)pyrimidin-4-yl)amino) benzamide] | ††† (†††: >0.39) | > 1000
9 | Cn1ccc(Nc2cc(Nc3ccccc3S(C)(=O)=O)ncn2)n1 [Compound 66, N^4-(1-methyl-1H-pyrazol-3-yl)-N^6-(2-(methylsulfonyl)phenyl) pyrimidine-4,6-diamine] | ††† (†††: >0.39) | > 1000
10 | Cc1cccc(Nc2cc(Nc3ccncc3S(C)(=O)=O)ncn2)n1 [Compound 60, N^4-(6-methylpyridin-2-yl)-N^6-(3-(methylsulfonyl)151yridine-4-yl) pyrimidine-4,6-diamine] | ††† (†††: >0.39) | > 1000
11 | CS(=O)(=O)c1ccccc1Nc1cc(NC(=O)C2CC2)ncn1 [Compound 69, N^4-(cyclopropylcarbonyl)-N^6-(2-(methylsulfonyl)phenyl)pyrimidine-4,6-diamine] | ††† (†††: >0.39) | > 1000
12 | CC(c1ccc(Nc2cc(Nc3ncccc3S(C)(=O)=O)ncn2)nc1)N1CC2(CC(C(F)F)C2)C1 (centres unmarked) [Compound 34, N^4-(5-(1-(6-(difluoromethyl)-2-azaspiro[3.3]heptan-2-yl)ethyl) 120yridine-2-yl)-N^6-(3-(methylsulfonyl)120yridine-2-yl)pyrimidine-4,6-diamine] | †† (††: 0.37-0.39) | < 100
13 | CC1(CNc2ccc(Nc3cc(Nc4ncccc4S(C)(=O)=O)ncn3)nc2)COC1 [Compound 36, N^4-(5-(((3-methyloxetan-3-yl)methyl)amino)123yridine-2-yl)-N^6-(3-(methylsulfonyl)123yridine-2-yl)pyrimidine-4,6-diamine] | ††† (†††: >0.39) | < 100
14 | COc1ccnc(Nc2cc(Nc3cccc(C)n3)ncn2)c1S(C)(=O)=O [Compound 65, N^4-(4-methoxy-3-(methylsulfonyl)155yridine-2-yl)-N^6-(6-methylpyridin-2-yl)pyrimidine-4,6-diamine] | ††† (†††: >0.39) | > 1000
15 | Cc1cccc(Nc2cc(Nc3ncccc3C(N)=O)ncn2)n1 [Compound 52, 2-((6-((6-methylpyridin-2-yl)amino)pyrimidin-4-yl)amino) nicotinamide] | ††† (†††: >0.39) | 100 to 1000
16 | Cc1cccc(Nc2cc(Nc3ncccc3CS(C)(=O)=O)ncn2)n1 [Compound 71, N^4-(6-methylpyridin-2-yl)-N^6-(3-((methylsulfonyl)methyl) 162yridine-2-yl)pyrimidine-4,6-diamine] | ††† (†††: >0.39) | > 1000
17 | Cc1cccc(Nc2cc(Nc3ccncc3C(N)=O)ncn2)n1 [Compound 51, 4-((6-((6-methylpyridin-2-yl)amino)pyrimidin-4-yl)amino) nicotinamide] | ††† (†††: >0.39) | > 1000
18 | C[C@H](NC1COC1)c1ccc(Nc2cc(Nc3ccccc3S(C)(=O)=O)ncn2)nc1 [Compound 40, I-N^4-(2-(methylsulfonyl)phenyl)-N^6-(5-(1-(oxetan-3-ylamino)ethyl)128yridine-2-yl)pyrimidine-4,6-diamine] | ††† (†††: >0.39) | 100 to 1000
19 | Cc1ccnc(Nc2cc(Nc3ccccc3P(C)(C)=O)ncn2)c1 [Compound 63, N^4-(2-(dimethylphosphoryl)phenyl)-N^6-(4-methylpyridin-2-yl) pyrimidine-4,6-diamine] | ††† (†††: >0.39) | 100 to 1000
20 | CS(=O)(=O)c1ccccc1Nc1cc(Nc2ccc(N3CCOCC3)cn2)ncn1 [Compound 42, N^4-(2-(methylsulfonyl)phenyl)-N^6-(5-morpholinopyridin-2-yl) pyrimidine-4,6-diamine] | ††† (†††: >0.39) | 100 to 1000
21 | CC1(Nc2cnc(Nc3cc(Nc4ncccc4S(C)(=O)=O)ncn3)cn2)COC1 [Compound 74, N^4-(5-(3-methyloxetan-3-ylamino)pyrazin-2-yl)-N^6-(3-(methylsulfonyl)167yridine-2-yl)pyrimidine-4,6-diamine] | ††† (†††: >0.39) | 100 to 1000
22 | C[C@@H](c1ccc(Nc2cc(Nc3ncc(Cl)cc3S(C)(=O)=O)ncn2)nc1)N1CC2(COC2)C1 [Compound 14, (S)—N^4-(5-(1-(2-oxa-6-azaspiro[3.3]heptan-6-yl)ethyl) 95yridine-2-yl)-N^6-(5-chloro-3-(methylsulfonyl)95yridine-2-yl)pyrimidine-4,6-diamine] | ††† (†††: >0.39) | < 100
23 | COc1ccc(Nc2cc(NC(=O)C3CC3)ncn2)c(C(N)=O)c1 [Compound 70, 2-((6-(cyclopropanecarboxamido)pyrimidin-4-yl)amino)-5-methoxy benzamide] | ††† (†††: >0.39) | > 1000
24 | CC(c1ccc(Nc2ncnc(Nc3ncccc3S(C)(=O)=O)c2F)nc1)N1CC2(COC2)C1 (centres unmarked) [Compound 75, N^4-(5-(1-(2-oxa-6-azaspiro[3.3]heptan-6-yl)ethyl)168yridine-2-yl)-5-fluoro-N^6-(3-(methylsulfonyl)168yridine-2-yl)pyrimidine-4,6-diamine] | † (†: <0.37) | 
25 | Cc1cccc(Nc2cc(Nc3ccccc3S(C)(=O)=O)nc(C)n2)n1 [Compound 56, 2-methyl-N^4-(6-methylpyridin-2-yl)-N^6-(2-(methylsulfonyl)phenyl) pyrimidine-4,6-diamine] | † (†: <0.37) | 
26 | CC1(Nc2ccc(Nc3cc(Nc4ncccc4S(C)(=N)=O)ncn3)nc2)COC1 (centres unmarked) [Compound 73, N^4-(5-((3-methyloxetan-3-yl)amino)166yridine-2-yl)-N^6-(3-(S-methylsulfonimidoyl)166yridine-2-yl)pyrimidine-4,6-diamine] | ††† (†††: >0.39) | 
